{"source": "paper PMC7180948", "about": "“New Insights into 4-Anilinoquinazolines as Inhibitors of Cardiac Troponin I–Interacting Kinase (TNNi3K)” (Molecules, 2020)", "assay_in_all_cases": "biochemical", "parameters_in_all_cases": "KINOMEscan competition binding panel (Eurofins DiscoverX), single concentration, % inhibition", "details_in_all_cases": "read-out: 7 at 1 µM % inhibition", "key": {"BMX": {"molecular_target": "BMX (Homo sapiens, UniProt P51813)", "sequence (P51813 whole entry)": "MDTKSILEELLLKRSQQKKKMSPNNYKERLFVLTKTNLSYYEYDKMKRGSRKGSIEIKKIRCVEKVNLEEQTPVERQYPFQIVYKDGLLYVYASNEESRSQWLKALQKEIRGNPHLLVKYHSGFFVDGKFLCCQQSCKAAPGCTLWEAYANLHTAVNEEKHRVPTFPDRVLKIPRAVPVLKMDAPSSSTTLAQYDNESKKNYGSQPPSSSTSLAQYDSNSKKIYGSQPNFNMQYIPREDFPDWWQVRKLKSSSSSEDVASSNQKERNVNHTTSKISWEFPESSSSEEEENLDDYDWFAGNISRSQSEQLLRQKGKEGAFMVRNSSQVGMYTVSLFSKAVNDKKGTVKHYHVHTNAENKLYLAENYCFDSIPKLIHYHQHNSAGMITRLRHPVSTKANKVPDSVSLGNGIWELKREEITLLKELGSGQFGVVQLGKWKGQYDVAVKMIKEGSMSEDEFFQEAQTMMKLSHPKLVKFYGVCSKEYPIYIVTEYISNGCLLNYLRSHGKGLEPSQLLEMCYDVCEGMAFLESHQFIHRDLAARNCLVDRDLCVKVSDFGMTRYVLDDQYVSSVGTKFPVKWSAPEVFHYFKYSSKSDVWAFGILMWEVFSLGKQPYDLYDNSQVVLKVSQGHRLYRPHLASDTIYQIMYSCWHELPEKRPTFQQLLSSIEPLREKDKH", "outline": "(§1)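 A single 1 µM concentration of each compound is screened across upwards of 400 human kinases using the KINOMEscan format.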"}, "BRSK1": {"molecular_target": "BRSK1 (Homo sapiens, UniProt Q8TDC3)", "outline": "as §1"}, "CDK3": {"molecular_target": "CDK3 (Homo sapiens, UniProt Q00526)", "sequence (Q00526 whole entry)": "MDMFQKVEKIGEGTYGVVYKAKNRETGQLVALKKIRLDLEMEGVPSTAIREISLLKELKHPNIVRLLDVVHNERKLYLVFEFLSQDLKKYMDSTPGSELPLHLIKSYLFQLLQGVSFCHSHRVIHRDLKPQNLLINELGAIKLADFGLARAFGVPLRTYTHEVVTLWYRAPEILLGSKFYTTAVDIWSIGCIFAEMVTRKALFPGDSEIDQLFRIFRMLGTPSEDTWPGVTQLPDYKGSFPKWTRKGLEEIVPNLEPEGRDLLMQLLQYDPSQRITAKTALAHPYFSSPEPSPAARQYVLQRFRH", "outline": "as §1"}, "CDK4-cyclinD3": {"molecular_target": "T1, CDK4-cyclinD3 (Homo sapiens, UniProt P11802)", "T1 construct": "cyclinD3", "outline": "as §1"}, "CDKL5": {"molecular_target": "CDKL5 (Homo sapiens, UniProt O76039)", "outline": "as §1"}, "CSNK1G1": {"molecular_target": "CSNK1G1 (Homo sapiens, UniProt Q9HCP0)", "sequence (Q9HCP0 whole entry)": "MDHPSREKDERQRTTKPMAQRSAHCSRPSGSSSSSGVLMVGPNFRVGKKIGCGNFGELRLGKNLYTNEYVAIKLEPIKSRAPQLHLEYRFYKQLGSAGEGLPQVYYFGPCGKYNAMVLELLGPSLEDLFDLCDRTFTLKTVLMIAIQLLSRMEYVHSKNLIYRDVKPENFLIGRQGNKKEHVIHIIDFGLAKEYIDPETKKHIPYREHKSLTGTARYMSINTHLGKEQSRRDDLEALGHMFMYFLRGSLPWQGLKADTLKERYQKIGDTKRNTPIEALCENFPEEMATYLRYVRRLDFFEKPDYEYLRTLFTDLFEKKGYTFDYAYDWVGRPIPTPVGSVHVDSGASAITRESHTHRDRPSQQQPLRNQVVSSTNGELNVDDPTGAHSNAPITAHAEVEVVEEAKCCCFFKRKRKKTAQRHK", "outline": "as §1"}, "[1]": {"molecular_target": "EGFR(L747-S752del, P753S) (Homo sapiens, UniProt P00533, DEL747-752/P753S)", "outline": "as §1"}, "EGFR(L858R,T790M)": {"molecular_target": "EGFR(L858R,T790M) (Homo sapiens, UniProt P00533, L858R/T790M)", "sequence (P00533 whole entry T790M/L858R)": "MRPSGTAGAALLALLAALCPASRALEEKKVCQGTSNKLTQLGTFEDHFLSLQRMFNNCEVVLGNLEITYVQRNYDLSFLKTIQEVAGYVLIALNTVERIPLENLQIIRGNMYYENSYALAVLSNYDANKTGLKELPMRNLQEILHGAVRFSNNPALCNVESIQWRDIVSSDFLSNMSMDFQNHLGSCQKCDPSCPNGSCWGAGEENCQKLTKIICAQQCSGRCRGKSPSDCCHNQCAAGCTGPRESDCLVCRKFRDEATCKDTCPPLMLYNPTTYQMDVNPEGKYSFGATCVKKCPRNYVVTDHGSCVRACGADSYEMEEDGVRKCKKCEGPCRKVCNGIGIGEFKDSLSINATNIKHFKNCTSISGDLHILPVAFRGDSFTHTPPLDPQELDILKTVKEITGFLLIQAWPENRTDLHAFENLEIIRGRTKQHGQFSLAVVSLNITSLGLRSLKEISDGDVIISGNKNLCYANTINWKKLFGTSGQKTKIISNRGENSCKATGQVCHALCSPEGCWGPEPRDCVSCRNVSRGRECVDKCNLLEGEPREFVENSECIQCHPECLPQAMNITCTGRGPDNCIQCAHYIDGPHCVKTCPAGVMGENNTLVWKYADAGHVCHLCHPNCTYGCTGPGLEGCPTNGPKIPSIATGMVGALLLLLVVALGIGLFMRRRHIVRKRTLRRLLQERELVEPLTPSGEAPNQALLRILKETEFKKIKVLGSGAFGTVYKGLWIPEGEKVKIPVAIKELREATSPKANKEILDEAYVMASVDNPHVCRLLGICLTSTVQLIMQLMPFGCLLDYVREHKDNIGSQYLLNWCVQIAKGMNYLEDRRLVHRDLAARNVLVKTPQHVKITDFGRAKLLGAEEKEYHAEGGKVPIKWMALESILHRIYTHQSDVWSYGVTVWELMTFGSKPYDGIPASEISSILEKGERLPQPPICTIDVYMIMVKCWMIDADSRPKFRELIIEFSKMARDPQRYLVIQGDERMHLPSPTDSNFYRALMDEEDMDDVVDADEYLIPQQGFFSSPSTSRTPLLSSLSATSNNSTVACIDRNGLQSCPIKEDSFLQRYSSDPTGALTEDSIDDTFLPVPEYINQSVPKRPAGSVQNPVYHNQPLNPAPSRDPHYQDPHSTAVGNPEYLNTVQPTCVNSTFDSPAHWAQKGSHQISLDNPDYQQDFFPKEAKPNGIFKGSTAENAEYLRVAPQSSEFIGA", "outline": "as §1"}, "ERK5": {"molecular_target": "T2, ERK5 (Homo sapiens, UniProt Q13164)", "T2 construct": "gene MAPK7", "outline": "as §1"}, "FLT3-autoinhibited": {"molecular_target": "FLT3-autoinhibited (Homo sapiens, UniProt P36888)", "sequence (P36888 whole entry)": "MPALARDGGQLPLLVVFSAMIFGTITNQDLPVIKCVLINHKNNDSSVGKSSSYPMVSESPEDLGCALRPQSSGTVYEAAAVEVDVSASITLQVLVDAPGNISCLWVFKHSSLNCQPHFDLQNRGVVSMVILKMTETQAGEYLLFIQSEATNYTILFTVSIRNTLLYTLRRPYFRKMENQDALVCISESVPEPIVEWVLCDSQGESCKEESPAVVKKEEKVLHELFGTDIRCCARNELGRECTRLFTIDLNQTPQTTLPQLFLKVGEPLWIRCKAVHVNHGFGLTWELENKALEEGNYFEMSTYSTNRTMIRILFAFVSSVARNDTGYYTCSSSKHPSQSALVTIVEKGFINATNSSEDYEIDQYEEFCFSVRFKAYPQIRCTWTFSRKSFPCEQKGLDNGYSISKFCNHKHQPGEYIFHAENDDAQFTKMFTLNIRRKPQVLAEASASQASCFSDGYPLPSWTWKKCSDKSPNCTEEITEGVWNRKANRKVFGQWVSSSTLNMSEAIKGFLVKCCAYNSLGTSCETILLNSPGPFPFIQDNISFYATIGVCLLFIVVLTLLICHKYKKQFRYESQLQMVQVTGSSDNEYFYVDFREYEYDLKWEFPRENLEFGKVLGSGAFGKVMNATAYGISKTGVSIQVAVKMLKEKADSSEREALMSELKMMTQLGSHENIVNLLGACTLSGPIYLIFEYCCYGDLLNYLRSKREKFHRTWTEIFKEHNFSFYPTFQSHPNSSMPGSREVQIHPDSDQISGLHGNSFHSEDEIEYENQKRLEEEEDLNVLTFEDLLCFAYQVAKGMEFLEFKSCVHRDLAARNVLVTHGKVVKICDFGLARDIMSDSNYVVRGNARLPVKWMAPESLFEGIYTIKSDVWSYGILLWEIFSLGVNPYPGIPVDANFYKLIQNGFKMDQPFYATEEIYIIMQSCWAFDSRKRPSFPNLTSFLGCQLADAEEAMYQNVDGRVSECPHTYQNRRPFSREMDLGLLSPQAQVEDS", "outline": "as §1"}, "IRAK3": {"molecular_target": "IRAK3 (Homo sapiens, UniProt Q9Y616)", "outline": "as §1"}, "[2]": {"molecular_target": "T3, JAK1(JH2domain-pseudokinase) (Homo sapiens, UniProt P23458)", "T3 construct": "JH2domain-pseudokinase", "outline": "as §1"}, "KIT(D816V)": {"molecular_target": "KIT(D816V) (Homo sapiens, UniProt P10721, D816V)", "outline": "as §1"}, "LIMK1": {"molecular_target": "LIMK1 (Homo sapiens, UniProt P53667)", "outline": "as §1"}, "MARK2": {"molecular_target": "MARK2 (Homo sapiens, UniProt Q7KZI7)", "outline": "as §1"}, "MEK4": {"molecular_target": "T4, MEK4 (Homo sapiens, UniProt P45985)", "T4 construct": "gene MAP2K4", "outline": "as §1"}, "MST3": {"molecular_target": "T5, MST3 (Homo sapiens, UniProt Q9Y6E0)", "T5 construct": "gene STK24", "outline": "as §1"}, "MTOR": {"molecular_target": "MTOR (Homo sapiens, UniProt P42345)", "outline": "as §1"}, "NEK11": {"molecular_target": "NEK11 (Homo sapiens, UniProt Q8NG66)", "outline": "as §1"}, "NEK5": {"molecular_target": "NEK5 (Homo sapiens, UniProt Q6P3R8)", "outline": "as §1"}, "S6K1": {"molecular_target": "T6, S6K1 (Homo sapiens, UniProt P23443)", "T6 construct": "gene RPS6KB1", "outline": "as §1"}, "SRMS": {"molecular_target": "SRMS (Homo sapiens, UniProt Q9H3Y6)", "sequence (Q9H3Y6 whole entry)": "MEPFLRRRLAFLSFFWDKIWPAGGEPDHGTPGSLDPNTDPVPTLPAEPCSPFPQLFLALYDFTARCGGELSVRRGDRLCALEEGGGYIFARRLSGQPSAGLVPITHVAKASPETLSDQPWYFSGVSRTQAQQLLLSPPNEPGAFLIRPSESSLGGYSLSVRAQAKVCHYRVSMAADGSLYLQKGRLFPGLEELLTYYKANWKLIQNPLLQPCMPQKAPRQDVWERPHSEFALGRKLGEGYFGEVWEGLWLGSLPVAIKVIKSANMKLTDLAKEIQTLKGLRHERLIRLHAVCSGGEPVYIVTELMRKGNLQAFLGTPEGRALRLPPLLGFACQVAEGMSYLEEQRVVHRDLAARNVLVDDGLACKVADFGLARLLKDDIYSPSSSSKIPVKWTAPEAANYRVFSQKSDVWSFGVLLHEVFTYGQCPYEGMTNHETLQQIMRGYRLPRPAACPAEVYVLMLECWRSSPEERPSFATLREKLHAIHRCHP", "outline": "as §1"}, "TNNI3K": {"molecular_target": "TNNI3K (Homo sapiens, UniProt Q59H18)", "sequence (Q59H18 whole entry)": "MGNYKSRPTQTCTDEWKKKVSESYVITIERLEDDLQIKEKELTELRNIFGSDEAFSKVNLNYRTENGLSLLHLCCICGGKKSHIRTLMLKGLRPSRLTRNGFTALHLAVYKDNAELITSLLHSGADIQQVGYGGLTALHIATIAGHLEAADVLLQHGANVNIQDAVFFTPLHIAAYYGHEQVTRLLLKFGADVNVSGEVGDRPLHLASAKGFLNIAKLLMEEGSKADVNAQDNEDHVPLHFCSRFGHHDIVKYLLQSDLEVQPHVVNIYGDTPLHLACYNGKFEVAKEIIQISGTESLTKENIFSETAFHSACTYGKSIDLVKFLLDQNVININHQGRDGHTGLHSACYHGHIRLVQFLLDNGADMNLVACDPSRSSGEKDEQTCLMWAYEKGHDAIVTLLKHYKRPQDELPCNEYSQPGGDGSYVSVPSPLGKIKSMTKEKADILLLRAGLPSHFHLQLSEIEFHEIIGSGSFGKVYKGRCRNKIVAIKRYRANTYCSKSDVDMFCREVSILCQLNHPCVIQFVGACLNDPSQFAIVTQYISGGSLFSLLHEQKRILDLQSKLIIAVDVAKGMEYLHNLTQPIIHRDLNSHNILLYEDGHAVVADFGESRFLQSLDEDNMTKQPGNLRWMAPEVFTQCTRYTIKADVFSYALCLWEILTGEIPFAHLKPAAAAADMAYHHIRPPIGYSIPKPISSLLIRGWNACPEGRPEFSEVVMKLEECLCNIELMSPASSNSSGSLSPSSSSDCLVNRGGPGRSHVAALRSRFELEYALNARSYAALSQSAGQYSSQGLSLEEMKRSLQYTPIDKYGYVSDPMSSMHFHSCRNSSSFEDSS", "outline": "as §1"}, "WNK4": {"molecular_target": "WNK4 (Homo sapiens, UniProt Q96J92)", "outline": "as §1"}}, "data": [{"smiles": "CNS(=O)(=O)c1ccc(N(C)C)c(Nc2ncnc3cc(OC)c(OC)cc23)c1", "note": "[compound 7, 3-((6,7-dimethoxyquinazolin-4-yl)amino)-4-(dimethylamino)-N-methylbenzenesulfonamide]", "values": [{"measurement": "inhibition at 1 µM", "setting": "BMX", "result": 0, "unit": "%"}, {"measurement": "inhibition at 1 µM", "setting": "BRSK1", "result": 0, "unit": "%"}, {"measurement": "inhibition at 1 µM", "setting": "CDK3", "result": 1, "unit": "%"}, {"measurement": "inhibition at 1 µM", "setting": "CDK4-cyclinD3", "result": 37, "unit": "%"}, {"measurement": "inhibition at 1 µM", "setting": "CDKL5", "result": 9, "unit": "%"}, {"measurement": "inhibition at 1 µM", "setting": "CSNK1G1", "result": 0, "unit": "%"}, {"measurement": "inhibition at 1 µM", "setting": "[1]", "result": 0, "unit": "%"}, {"measurement": "inhibition at 1 µM", "setting": "EGFR(L858R,T790M)", "result": 7, "unit": "%"}, {"measurement": "inhibition at 1 µM", "setting": "ERK5", "result": 6, "unit": "%"}, {"measurement": "inhibition at 1 µM", "setting": "FLT3-autoinhibited", "result": 12, "unit": "%"}, {"measurement": "inhibition at 1 µM", "setting": "IRAK3", "result": 0, "unit": "%"}, {"measurement": "inhibition at 1 µM", "setting": "[2]", "result": 20, "unit": "%"}, {"measurement": "inhibition at 1 µM", "setting": "KIT(D816V)", "result": 91.7, "unit": "%"}, {"measurement": "inhibition at 1 µM", "setting": "LIMK1", "result": 0, "unit": "%"}, {"measurement": "inhibition at 1 µM", "setting": "MARK2", "result": 0, "unit": "%"}, {"measurement": "inhibition at 1 µM", "setting": "MEK4", "result": 37, "unit": "%"}, {"measurement": "inhibition at 1 µM", "setting": "MST3", "result": 0, "unit": "%"}, {"measurement": "inhibition at 1 µM", "setting": "MTOR", "result": 0, "unit": "%"}, {"measurement": "inhibition at 1 µM", "setting": "NEK11", "result": 0, "unit": "%"}, {"measurement": "inhibition at 1 µM", "setting": "NEK5", "result": 25, "unit": "%"}, {"measurement": "inhibition at 1 µM", "setting": "S6K1", "result": 23, "unit": "%"}, {"measurement": "inhibition at 1 µM", "setting": "SRMS", "result": 41, "unit": "%"}, {"measurement": "inhibition at 1 µM", "setting": "TNNI3K", "result": 62, "unit": "%"}, {"measurement": "inhibition at 1 µM", "setting": "WNK4", "result": 0, "unit": "%"}]}]}
